Data from ChEMBL document CHEMBL3351869, “Discovery of a new family of carbonic anhydrases in the malaria pathogen Plasmodium falciparum--the η-carbonic anhydrases” (Bioorg Med Chem Lett, 2014).

Target: Carbonic anhydrase 1 (Homo sapiens, UniProt P00915)
Sequence (P00915 whole entry): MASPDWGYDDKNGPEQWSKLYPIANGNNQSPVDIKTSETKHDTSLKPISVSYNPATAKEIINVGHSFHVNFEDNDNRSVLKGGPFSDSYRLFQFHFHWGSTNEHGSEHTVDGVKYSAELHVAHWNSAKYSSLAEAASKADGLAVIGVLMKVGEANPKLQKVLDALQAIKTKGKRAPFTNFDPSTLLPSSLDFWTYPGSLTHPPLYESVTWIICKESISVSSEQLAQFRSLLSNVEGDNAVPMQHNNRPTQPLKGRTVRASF

`O=[Se](=O)(O)O` [SODIUM SELENATE] was tested, and the Ki was 570 µM.
